“Also recorded” adds a separate entry of the source.
What was measured:
[1] = system: rabbit skeletal myosin HMM; assay: In vitro motility assay of actin thin filaments over myosin HMM; format: biochemical
Description: In vitro motility assay a classic method to determine the sliding velocity of actin thin filaments over immobilized myosin in the presence of ATP (Kron et al., 1991). The assay involves the immobilization of myosin either in thick filament assembly or through individual myosin molecule on a nitrocellulose or dichlorodimethylsilane treated coverslip. Fluorescently labelled actin thin filament is allowed to slide across the bound myosin molecule upon addition of ATP. Sliding of actin over myosin treated with myosin S2 binding proteins would establish their effect over acto-myosin interaction and overall force produced. Myosin heavy meromyosin would be enough to test the effect of stabilizer and destabilizer over the acto-myosin interaction, however to test the effect of MyBPC over myosin reconstituted in its thick filament form would be required since MyBPC binds to both light meromyosin and myosin S2. Myosin in its thick filament form will improve the binding of MyBPC to a myosin molecule rather than a single myosin molecule immobilized on a glass surface.
Rabbit skeletal myosin is dialyzed against buffer containing 0.5 M potassium chloride and 10 mM imidazole with pH 7.0 overnight to remove the impurities. Dialyzed myosin undergoes trypsin digestion with 1 mM magnesium chloride and α-chymotrypsin, digestion was stopped after addition of phenylmethylsulfonylfluoride in methanol at room temperature. Tryptic digest of myosin is dialyzed overnight at 4° C. against buffer containing 0.04 M potassium chloride and 10 mM imidazole with pH 7.0. Dialyzed tryptic digest of myosin is centrifuged at 21000 g for 60 minutes at 4° C. to yield myosin heavy meromyosin in the supernatant. This myosin heavy meromyosin achieved has a mixture of ATP sensitive and ATP insensitive heads. To purify myosin heavy meromyosin with ATP sensitive myosin S1 heads, F actin is added at an equimolar concentration to the unpurified myosin heavy meromyosin extract along with 1 mM ATP and magnesium chloride. Low salt assay buffer (25 mM potassium chloride, 10 mM imidazole, 2 mM magnesium chloride and 10 mM dithioerythritol with pH 7.0) was used as mixing solvent for the myosin heavy meromyosin purification step. Purified myosin heavy meromyosin with ATP sensitive heads are suspended in the supernatant when unpurified myosin heavy meromyosin with F actin, ATP and magnesium chloride is centrifuged with the speed of 21000 g at 4° C. ATP insensitive heads will bind F actin irreversibly thus forming the precipitate in the centrifugation step. Purified myosin heavy meromyosin with ATP sensitive heads are ready for the in vitro motility assay.
Rhodamine phalloidin labelling of F-actin F-actin and rhodamine phalloidin are mixed in 1:5 micro molar concentration ratio with low salt assay buffer. Rhodamine phalloidin binds in between the grooves of actin subunits of F-actin. The mixture of F-actin and rhodamine phalloidin is allowed to incubate overnight at 4° C. to allow maximal labelling of F-actin.
Glass coverslips are coated with freshly prepared 2% dichlorodimethylsilane in chloroform. Perfusion chamber is created by two halves of glass coverslips on a clean glass slide with help of vacuum grease. The perfusion chamber is then sealed with dichlorodimethylsilane treated coverslip with two side open to allow perfusion of buffer from one end and wicking on the opposite end. First step in preparation of slide is to immobilize either purified myosin heavy meromyosin or myosin thick filaments. These purified products are diluted with low salt assay buffer to achieve a final concentration of 0.1 μM before adding them in to perfusion chamber. Myosin heavy meromyosin or myosin thick filaments are allowed to immobilize on dichloro-dimethylsilane treated coverslip for a minute. Unbound myosin is washed away by low salt assay buffer once and multiple washes with assay buffer mixed with 0.5 mg/ml bovine serum albumin (AB-BSA) blocks the unbound protein. […]

[2] = target: T1, smooth muscle myosin S2 peptide (MYH11) (Homo sapiens, UniProt P35749); assay: GFS, uncoiling of smooth myosin S2 peptide dimer; format: biochemical; details: for impact on mechanical stability of smooth muscle myosin S2 peptide: force distance curve vs control; for Force required to uncoil S2 molecule: length 10 nm, in presence of the anti-S2 peptide, ± SEM
T1 construct: host or cells: chemical synthesis
T1 sequence (P35749 with tags, fused parts or gaps): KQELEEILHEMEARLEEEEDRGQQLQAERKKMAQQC
Description: 3-aminopropyltriethoxysilane, acetone, coupling buffer (0.01 M pyridine in water with pH 6.0), 5% glutaraldehyde, quenching solution (1 M glycine in water with pH 7.0), blocking buffer (0.01 M Tris, 0.1% sodium azide, 0.1% bovine serum albumin, 0.15 M sodium chloride, and 0.001 M ethylenediaminetetraacetic acid with pH 7.0), wash buffer (0.01 M Tris, 0.1% sodium azide, 0.15 M sodium chloride, and 0.001 M ethylenediaminetetraacetic acid with pH 7.0) low salt buffer (0.1 M potassium chloride, 0.02 M imidazole, 5 mM magnesium chloride, with pH 7.0), 1-ethyl-3-(3-dimethyaminopropyl) carbodiimide, N-hydroxysuccinamide, iodoacetamide-succinimidyl ester, 8M urea solution (50 mM imidazole and 0.1 mM tris (2-carboxyethyl) phosphine with pH 7.0) monodisperse silica beads, glass slides, glass coverslips, vacuum grease, rabbit skeletal myosin, purified actin (G-actin), 1 μM human β-cardiac myosin S2 peptide, 1 μM human β-cardiac mutants myosin S2 peptide (E930del and E924K), 1 μM human skeletal myosin S2 peptide, 1 μM human smooth myosin S2 peptide, stabilizer peptide, and destabilizer peptide. A light microscope with an objective lens of 10× was mounted on an alt-azimuthal mount. A digital video camera of Sony, XCD-V60 was replaced with the ocular lenses. Extension springs on steel bracket held the alt-azimuthal mount suspended.
Gravitational force spectroscopy (GFS), is a single molecule force spectroscopy that utilizes gravitational force to measure absolute length of a single molecule at the given force calculated by the density of the bead suspending the molecule. This technique was discovered and developed in Root lab, which measures the forces in piconewton and sub-piconewton levels. Other than absolute length of a molecule, GFS measures force range required to uncoil, stretch or extend the molecule yielding a force-distance profile for the suspended molecule. Besides that, based on the force-distance profile, number of amino acids within the molecule can be calculated. […] The GFS allowed to test the flexibility or stability of a single molecule of myosin S2 peptide and also for the S2 peptides treated with anti-S2 peptides. Flexibility of myosin S2 is not dependent on assembly myosin as a thick filament or myosin in its single molecule form. […]
Free fall mode, another measurement variant of GFS which allows the user to get a force distance profile on a single molecule experiencing the gravitational force. […] During the free fall mode, GFS has a single molecule which is suspended within an immobile edge and mobile bead will now experience the variable force which would be calculated by the product of mass of the bead and the acceleration of the GFS. […]

Force required to uncoil S2 molecule [2] [pN]	SMILES	velocity distribution of actin thin filaments (histogram) ([1]; 20 nM and 100 nM peptide) [microns/second]	Average velocity of actin thin filaments ([1]; 20 nM peptide) [microns/second]	Average velocity of actin thin filaments ([1]; 100 nM peptide) [microns/second]	rise of motility of actin thin filaments ([1]; vs control) [%]	impact on mechanical stability of smooth muscle myosin S2 peptide [2]
4.51E−01 ± 2.98E−02	CSCC[C@H](NC(=O)[C@H](CCC(=O)O)NC(=O)[C@H](CCCNC(=N)N)NC(=O)[C@H](CCC(=O)O)NC(=O)[C@H](CC(=O)O)NC(=O)[C@H](CCC(=O)O)NC(=O)[C@H](CC(C)C)NC(=O)[C@H](CCCNC(=N)N)NC(=O)[C@H](CCC(=O)O)NC(=O)[C@H](CC(N)=O)NC(=O)[C@H](CCSC)NC(=O)[C@@H](N)CCC(=O)O)C(=O)N[C@@H](CCCCN)C(=O)N[C@@H](C)C(=O)N[C@@H](CCC(=O)O)C(=O)N[C@@H](CC(C)C)C(=O)N[C@H](C(=O)N[C@@H](C)C(=O)N[C@@H](CCCCN)C(=O)O)[C@@H](C)O [Destabilizer]	~8.0	8.22±0.254	8.39±0.397	18	do not have an impact
4.96E−01 ± 7.60E−02	C[C@H](NC(=O)[C@H](CCCCN)NC(=O)[C@H](Cc1ccccc1)NC(=O)[C@H](CCCCN)NC(=O)[C@H](CCCCN)NC(=O)[C@H](CCCCN)NC(=O)[C@H](CCCCN)NC(=O)[C@H](CCCCN)NC(=O)[C@H](CCCCN)NC(=O)[C@H](CCCCN)NC(=O)[C@@H](N)CCCCN)C(=O)N[C@@H](CCCCN)C(=O)N[C@@H](CCCCN)C(=O)N[C@@H](CCCCN)C(=O)N[C@@H](CCCCN)C(=O)N[C@@H](CCCCN)C(=O)N[C@@H](CCCCN)C(=O)O [Stabilizer]		6.18±0.28	6.21±0.14		do not have an impact; also recorded: no effect

— patent publication US12617818B2, “Compositions and methods for modulating myosin subfragment-2 coiled coil stability and methods for using them” (UNIVERSITY OF NORTH TEXAS, priority 2020, dated 2026)
